Results taken from PMC13172357 (Nature Communications, 2026).
Values joined by “and” are separate entries in the source; they are usually repeats but may differ in a detail not shown here. Identical values can stand only once.

Tests used:
Panc89 cells = assay: Total proteome analysis, DIA mass spectrometry, Panc89 cells; assay type: cell-based, H. sapiens; conditions: DIA Panc89, 1 µM
Method: Following treatment, cells were harvested, washed twice with PBS, and pellets were flash frozen in liquid nitrogen before being stored at −80 °C. Samples were prepared using the single-pot, solid-phase-enhanced sample-preparation (SP3) strategy. All buffers and solutions were prepared with mass spectrometry (MS)-grade water (Honeywell). Cell pellets were taken up in 100 µL 1x sample buffer (50 mM Hepes pH 8.0, 1% (wt/v) SDS, 1% (v/v) NP-40, 10 mM TCEP, 40 mM chloroacetamide) and samples were heated at 90 °C for 5 min prior to sonication with a Bioruptor UCD-300 (Diagenode) for ten cycles of 1 min pulse and 30 s pause at high power. The samples were then supplemented with Benzonase (20 U/sample) and sonified for 5 min in a water bath (Bandelin) followed by 30 min incubation at […].
The protein extracts were then centrifuged (20000 ×g, RT, 40 min) and the protein concentration of the cleared lysates was determined using the Pierce 660 nm Protein Assay Reagent (#22660; Thermo Scientific) with the Ionic Detergent Compatibility Reagent (#22663; Thermo Scientific) according to the manufacturers’ instructions. Next, 15 µg of total protein per sample in a volume of 100 µL sample buffer was transferred to a 500 µL 96-well plate and treated with 7 U of benzonase (#71206; Merck Millipore) in dilution buffer (20 mM Hepes pH 8.0, 2 mM MgCl2) at 37 °C for 30 min with agitation at 1500 rpm. […]

USP7 = biological target: T1, USP7 (Homo sapiens, UniProt Q93009); assay: USP7 degradation, Western blot densitometry, Panc89 cells; assay type: cell-based; conditions: for USP7 degradation (in words): 24 h; for DC50: read-out: DC50 (half-maximal degradation concentration)
T1 construct: allowed the analysis of endogenous USP7 degradation in both cell lines; endogenous in cells; host or cells: Panc89 (PDAC) and Ma-Mel-47 (melanoma) cells
T1 sequence (Q93009 whole entry): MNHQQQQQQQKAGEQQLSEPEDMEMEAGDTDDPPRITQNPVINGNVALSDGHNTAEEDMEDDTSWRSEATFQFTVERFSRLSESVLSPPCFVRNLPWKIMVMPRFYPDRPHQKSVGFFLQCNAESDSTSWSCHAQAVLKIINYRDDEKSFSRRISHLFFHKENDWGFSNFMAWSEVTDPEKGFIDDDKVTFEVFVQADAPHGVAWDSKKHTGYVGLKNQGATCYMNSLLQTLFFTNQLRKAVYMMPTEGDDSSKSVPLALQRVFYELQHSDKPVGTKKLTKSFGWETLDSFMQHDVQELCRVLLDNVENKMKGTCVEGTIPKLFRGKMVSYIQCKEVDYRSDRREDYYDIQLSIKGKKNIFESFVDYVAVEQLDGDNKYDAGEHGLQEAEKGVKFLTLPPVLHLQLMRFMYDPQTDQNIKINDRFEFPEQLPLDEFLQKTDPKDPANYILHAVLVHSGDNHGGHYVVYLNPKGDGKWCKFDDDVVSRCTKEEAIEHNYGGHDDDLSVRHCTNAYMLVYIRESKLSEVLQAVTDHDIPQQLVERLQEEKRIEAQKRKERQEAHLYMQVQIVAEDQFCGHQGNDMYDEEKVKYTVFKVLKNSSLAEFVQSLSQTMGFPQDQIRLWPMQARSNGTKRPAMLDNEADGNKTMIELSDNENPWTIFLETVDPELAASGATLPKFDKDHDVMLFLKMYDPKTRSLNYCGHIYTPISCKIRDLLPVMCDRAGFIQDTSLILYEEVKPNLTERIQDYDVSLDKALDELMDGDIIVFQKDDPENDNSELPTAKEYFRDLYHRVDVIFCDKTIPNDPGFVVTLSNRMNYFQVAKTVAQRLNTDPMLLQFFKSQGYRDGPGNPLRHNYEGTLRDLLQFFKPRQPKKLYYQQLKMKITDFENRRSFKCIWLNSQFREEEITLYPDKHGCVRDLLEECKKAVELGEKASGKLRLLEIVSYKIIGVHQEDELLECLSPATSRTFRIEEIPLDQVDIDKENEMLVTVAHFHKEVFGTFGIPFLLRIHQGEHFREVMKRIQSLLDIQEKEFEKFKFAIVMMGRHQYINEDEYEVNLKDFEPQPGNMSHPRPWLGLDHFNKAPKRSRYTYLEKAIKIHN
Method: The melanoma cell line Ma-Mel-47 (established previously[57] from metastatic lesions from patient tumor tissues after written informed consent) and the PDAC cell line Panc89 (RRID: CVCL_4056, also referenced as T3M-4[58]) were cultured in a humidified incubator with 5% CO2 at 37 °C in RPMI1640 (Ma-Mel-47) / DMEM (Panc89) medium containing 10% (v/v) fetal calf serum (FCS) and penicillin/streptomycin (all Gibco, Thermo Fisher Scientific). Studies on human material were approved by the institutional review board. […] Testing for mycoplasma was performed by PCR monthly. To confirm cell identity, STR analysis was performed by the Microsynth Seqlab GmbH.
To prepare samples for Western blot analysis, cells were seeded in 6-well dishes the day before treatment to adhere at 70–80% confluency.
Cell pellets of all PDAC samples were lysed via adding a buffer containing 150 mM NaCl, 50 mM Tris/HCl (pH 7.4), 1% Triton X-100, 10 mM EDTA, 1 mM PMSF, 10 mM orthovanadate, and 1% aprotinin, incubating on ice for 1 h with vortexing every 15 minutes. Lysates were cleared of cell debris by centrifugation at 10,000 ×g at 4 °C for 10 min. […] Lysates were then clarified of cell debris by centrifugation at 13,000 ×g at 4 °C for 15 min. Thereafter, the total protein concentrations were either determined immediately or the protein extracts were stored at −20 or −80 °C. Pellets for samples shown in Fig. 6 and Supplementary Fig. 6 were lysed in 120 µL lysis buffer (50 mM Tris pH 8.0, 150 mM NaCl, 1% (v/v) IGEPAL, 0.5% (w/v) Na-deoxycholate, 0.1% (w/v) SDS) supplemented with 1x EDTA-free inhibitor protease cocktail (cOmplete, Roche) for 15 min at 4 °C. 0.2 µL Turbonuclease (Sigma Aldrich) and 5 mM MgCl2 were then added and lysates were incubated for 15 min at 4 °C. Cell debris was separated by centrifugation at 20,817 ×g for 15 min at 4 °C.
Protein concentrations of cell lysates were measured using the Pierce BCA Protein Assay (Thermo Fisher Scientific) or the Quick Start Bradford Protein Assay (Bio-Rad), following the manufacturers’ protocols. Measurements were recorded on Tecan Spark or Tecan Infinite M200 plate readers. Lysates were kept on ice throughout the entire process.
To separate proteins via SDS-PAGE, 10-20 µg of protein in lysis buffer was diluted with SDS-PAGE loading buffer (for most blots containing DTT or 2-mercaptoethanol) and denatured at 95 °C for 5 min. Protein separation was conducted at 95–110 V using the Mini-PROTEAN electrophoresis system (Bio-Rad). Proteins were then transferred to PVDF or nitrocellulose membranes using the Trans-Blot Turbo system (Bio-Rad) with the Trans-Blot Turbo RTA Kit for PVDF membranes. Prior to transfer, membranes were activated by soaking in 100% ethanol (for PVDF) or distilled water (for nitrocellulose) and proteins were transferred using the Mixed MW or the standard (1.0 A, 25 V, 30 min) protocol.
After transfer, membranes were blocked in 5% (w/v) milk/TBS-T for 1 h and then washed three times for 10 min with TBS-T. They were incubated overnight at 4 °C with the primary antibody in 5% (w/v) milk/TBS-T or 1% (w/v) BSA/TBS-T. Membranes were then washed three times for 10 min with TBS-T and incubated with horseradish peroxidase (HRP)-conjugated secondary antibodies in a solution of 5% (w/v) BSA/TBS-T or 1% (w/v) milk/TBS-T for 1 h at room temperature. PBS-T was used for blots shown in Fig. 6 and Supplementary Fig. 6.
Membranes were incubated with Clarity Western ECL substrate (Bio-Rad) for PDAC samples or Pierce ECL Western Blotting-Substrate (Thermo Fisher Scientific) for melanoma. Chemiluminescent signals were detected with a ChemiDoc Imaging System (Bio-Rad) for PDAC samples or with a ECL Chemostar Imager (Intas Science Imaging) for melanoma samples.
Densitometric quantification of band intensities for Fig. 2c, d was performed using the ImageJ software.

[1] = Panc89, 24 h, Western blot densitometry

| SMILES | Proteins significantly decreased (in words) (Panc89 cells; 6 h) | USP7 degradation (in words) (USP7; Panc89, 5 µM, Western blot) | Concentration of near complete degradation of USP7 (USP7; Panc89, 24 h) | Dmax (USP7; [1]) | DC50 (USP7; [1]) | Time after which USP7 degradation was observed (USP7; Panc89, 1 µM) | USP7 degradation (in words) (USP7; Panc89, increasing concentrations) | Changes to the proteome (in words) (Panc89 cells; 72 h) | USP7 levels in time course (in words) (USP7; Panc89, 1 µM, over 24 h) |
| --- | --- | --- | --- | --- | --- | --- | --- | --- | --- |
| Cc1ncsc1-c1ccc([C@H](C)NC(=O)[C@@H]2C[C@@H](O)CN2C(=O)[C@@H](NC(=O)[C@H]2CC[C@H](C(=O)N3CCN(c4ccc(-n5ncc6c(=O)n(CC7(O)CCN(C(=O)C[C@@H](C)c8ccccc8)CC7)cnc65)cc4)CC3)CC2)C(C)(C)C)cc1 [NK250] | USP7 was the only protein that was significantly decreased | complete degradation | ~100 nM | 98% | 8 nM |  |  |  |  |
| Cc1ncsc1-c1ccc([C@H](C)NC(=O)[C@@H]2C[C@@H](O)CN2C(=O)[C@@H](NC(=O)C23C4C5C2C2C3C4C52C(=O)N2CCC(C3CCN(c4ccc(-n5ncc6c(=O)n(CC7(O)CCN(C(=O)C[C@@H](C)c8ccccc8)CC7)cnc65)cc4)CC3)CC2)C(C)(C)C)cc1 (stereo partly shown) [NK266] |  |  |  |  | 49 nM | 16 h and 16 to 24 h | near complete degradation of USP7 |  |  |
| Cc1ncsc1-c1ccc(CNC(=O)[C@@H]2C[C@H](O)CN2C(=O)[C@@H](NC(=O)[C@H]2CC[C@H](C(=O)N3CCN(c4ccc(-n5ncc6c(=O)n(CC7(O)CCN(C(=O)C[C@@H](C)c8ccccc8)CC7)cnc65)cc4)CC3)CC2)C(C)(C)C)cc1 [NK245] |  |  |  |  |  |  |  | only showed minimal changes to the proteome | did not reduce protein levels |
